Experimental data: patent publication US20240398771A1, “TREATMENT OF SCLERODERMA AND RAYNAUD'S SYNDROME” (Aisa Pharma, Inc., priority 2023, published 2024)

Tested on: participants with SSc-RP
Test: Average duration of weekly symptomatic RP attacks (minutes)
Type: in vivo, human
Settings: ITT Part A
Source text: The relevant metrics measured by this tool daily are: • Study medication • SSc-RP symptoms (Reporting an attack including duration of attack) • Severity of the attack considering all symptoms of the attack e.g. tingling, numbness, pain, color changes (VAS 0-10 cm scale) • Participant's location at the time of the attack (inside home/outside home) • Selecting symptoms experienced during the attack (tingling, numbness, pain, color changes, other) • Pain rating during the attack (11-point Likert scale) • The RCS based on how much difficulty participants had with Raynaud's today, how many attacks the participant had, and how long they lasted. Participants will also be asked to consider how much pain, numbness, or other symptoms the Raynaud's caused in fingers (including painful sores), and how much the Raynaud's alone affected the use of hands today (VAS 0-10 cm scale).
The absolute change in average duration of weekly RP attacks from baseline to the end of each dosing period was and will be a secondary outcome variable. The sponsor-developed participant-informed diary was and will be used to record data. Average duration of weekly RP attacks is defined as the total duration of RP attacks divided by total number of RP attacks within the last 7 days of each dosing period. Total duration of RP attacks during the last 7 days of screening period divided by the total number of RP attacks will be used as baseline for the analysis of all periods. The variable will be calculated similar to frequency data as before.

[1] = Excluding Outliers, Baseline RCS subgroup 1 (Table B-4, stratum not given), last 7 days of screening period, listed as Pooled Cilnidipine
[2] = Baseline RCS subgroup 1 (Table B-3, stratum not given), last 7 days of dosing period, listed as Cilnidipine 10 mg
[3] = Baseline RCS subgroup 1 (Table B-3, stratum not given), last 7 days of dosing period, listed as Cilnidipine 20 mg
[4] = Baseline RCS subgroup 1 (Table B-3, stratum not given), last 7 days of dosing period, listed as Pooled Cilnidipine
[5] = Baseline RCS subgroup 1 (Table B-3, stratum not given), last 7 days of screening period, listed as Cilnidipine 10 mg
[6] = Baseline RCS subgroup 1 (Table B-3, stratum not given), last 7 days of screening period, listed as Cilnidipine 20 mg
[7] = Baseline RCS subgroup 1 (Table B-3, stratum not given), last 7 days of screening period, listed as Pooled Cilnidipine

SMILES: COCCOC(=O)C1=C(C)NC(C)=C(C(=O)OC/C=C/c2ccccc2)C1c1cccc([N+](=O)[O-])c1 (centres unmarked) [Cilnidipine, 1,4-dihydro-2,6-dimethyl,4-(3-nitrophenyl)-3,5-pyridinedicarboxylic acid 2-methoxyethyl (2 E)-3-phenyl-2-propenyl ester]
- Average duration of weekly symptomatic RP attacks, Baseline, Q3 (Excluding Outliers, Baseline RCS subgroup 1 (Table B-4, stratum not given), last 7 days of screening period, listed as Cilnidipine 20 mg): 26.39 min
- Average duration of weekly symptomatic RP attacks, Baseline [1]: 13.3 min
- Average duration of weekly symptomatic RP attacks, Baseline, Max [1]: 48.4 min
- Average duration of weekly symptomatic RP attacks, Baseline, Mean [1]: 29.37 min
- Average duration of weekly symptomatic RP attacks, Baseline, Median [1]: 26.39 min
- Average duration of weekly symptomatic RP attacks, Baseline, Q1 [1]: 13.33 min
- Average duration of weekly symptomatic RP attacks, Baseline, Q3 [1]: 48.38 min
- Average Duration of weekly symptomatic RP attacks, Max [2]: 31.6, 31.6 minutes
- Average Duration of weekly symptomatic RP attacks, Min [2]: 31.6, 31.6 minutes
- Average duration of weekly symptomatic RP attacks, Change from Baseline, Max [2]: −16.7, −16.7 minutes
- Average duration of weekly symptomatic RP attacks, Change from Baseline, Q1 [2]: −16.74, −16.74 minutes
- Average duration of weekly symptomatic RP attacks, Change from Baseline, Q3 [2]: −16.74, −16.74 minutes
- Average duration of weekly symptomatic RP attacks, Percent Change from Baseline, Max [2]: −34.6, −34.6%
- Average duration of weekly symptomatic RP attacks, Percent Change from Baseline, Min [2]: −34.6, −34.6%
- Average duration of weekly symptomatic RP attacks, Percent Change from Baseline, Q3 [2]: −34.60, −34.60%
- Average Duration of weekly symptomatic RP attacks [3]: 3.0 min
- Average Duration of weekly symptomatic RP attacks, Max [3]: 30.5 min
- Average Duration of weekly symptomatic RP attacks, Q1 [3]: 3.00 min
- Average Duration of weekly symptomatic RP attacks, Q3 [3]: 30.45 min
- Average duration of weekly symptomatic RP attacks, Change from Baseline [3]: -10.3 min
- Average duration of weekly symptomatic RP attacks, Change from Baseline, Max [3]: 4.1 min
- Average duration of weekly symptomatic RP attacks, Change from Baseline, Q1 [3]: -10.33 min
- Average duration of weekly symptomatic RP attacks, Change from Baseline, Q3 [3]: 4.07 min
- Average duration of weekly symptomatic RP attacks, Percent Change from Baseline, Max [3]: 15.4%
- Average duration of weekly symptomatic RP attacks, Percent Change from Baseline, Min [3]: −77.5%
- Average duration of weekly symptomatic RP attacks, Percent Change from Baseline, Q1 [3]: −77.50%
- Average Duration of weekly symptomatic RP attacks [4]: 3.0 min
- Average Duration of weekly symptomatic RP attacks, Max [4]: 31.6 min
- Average Duration of weekly symptomatic RP attacks, Q1 [4]: 3.00 min
- Average Duration of weekly symptomatic RP attacks, Q3 [4]: 31.64 min
- Average duration of weekly symptomatic RP attacks, Change from Baseline [4]: -16.7 min
- Average duration of weekly symptomatic RP attacks, Change from Baseline, Max [4]: 4.1 min
- Average duration of weekly symptomatic RP attacks, Change from Baseline, Q1 [4]: -16.74 min
- Average duration of weekly symptomatic RP attacks, Change from Baseline, Q3 [4]: 4.07 min
- Average duration of weekly symptomatic RP attacks, Percent Change from Baseline, Max [4]: 15.4%
- Average duration of weekly symptomatic RP attacks, Percent Change from Baseline, Median [4]: −34.60%
- Average duration of weekly symptomatic RP attacks, Percent Change from Baseline, Min [4]: −77.5%
- Average duration of weekly symptomatic RP attacks, Percent Change from Baseline, Q1 [4]: −77.50%
- Average duration of weekly symptomatic RP attacks, Baseline, Max [5]: 48.4, 48.4 minutes
- Average duration of weekly symptomatic RP attacks, Baseline, Mean [5]: 48.38 min
- Average duration of weekly symptomatic RP attacks, Baseline, Median [5]: 48.38 min
- Average duration of weekly symptomatic RP attacks, Baseline, Min [5]: 48.4, 48.4 minutes
- Average duration of weekly symptomatic RP attacks, Baseline, Q1 [5]: 48.38, 48.38 minutes
- Average duration of weekly symptomatic RP attacks, Baseline, Q3 [5]: 48.38, 48.38 minutes
- Average duration of weekly symptomatic RP attacks, Baseline [6]: 13.3 min
- Average duration of weekly symptomatic RP attacks, Baseline, Max [6]: 26.4 min
- Average duration of weekly symptomatic RP attacks, Baseline, Mean [6]: 19.86 min
- Average duration of weekly symptomatic RP attacks, Baseline, Median [6]: 19.86 min
- Average duration of weekly symptomatic RP attacks, Baseline, Q1 [6]: 13.33 min
- Average duration of weekly symptomatic RP attacks, Baseline, Q3 [6]: 26.39 min
- Average duration of weekly symptomatic RP attacks, Baseline [7]: 13.3 min
- Average duration of weekly symptomatic RP attacks, Baseline, Max [7]: 48.4 min
- Average duration of weekly symptomatic RP attacks, Baseline, Mean [7]: 29.37 min
- Average duration of weekly symptomatic RP attacks, Baseline, Median [7]: 26.39 min
- Average duration of weekly symptomatic RP attacks, Baseline, Q1 [7]: 13.33 min
- Average duration of weekly symptomatic RP attacks, Baseline, Q3 [7]: 48.38 min
